# Laboratory results published in patent US9895338B1, “Cobalt-polypyridyl complex for treatment of cancer, a pharmaceutical composition and a kit comprising it” (Macau University of Science and Technology, priority 2016, dated 2018).
# Columns and labels:
# MCF-7 (breast cancer) = test: MTT cytotoxicity assay, MCF-7; assay type: cell-based; conditions: MCF-7, MTT, 72 h
# Procedure: (§1) All prepared cobalt-polypyridyl complexes were dissolved in DMSO at a final concentration of 50 mmol/L and stored at −20° C. before use. Cytotoxicity was assessed by using the 3-(4,5-dimethylthiazol-2-yl)-2,5-diphenyltetrazolium bromide (MTT) (5.0 mg/ml) assay as previously described (Wong, V. K. et al., Cell Death Dis, 2013, 4, e720). Briefly, 4×10^3 cells per well were seeded in 96-well plates before drug treatments. After overnight culture, the cells were then exposed to different concentrations of selected compounds (0.039-100 μmol/L) for 72 h. Cells without drug treatment were used as control. Subsequently, MTT (10 μL) solution was added to each well and incubated at 37° C. for 4 h followed by the addition of 100 μL solubilization buffer (10% SDS in 0.01 mol/L HCl) and overnight incubation. A570 nm was then determined in each well on the next day. The percentage of cell viability was calculated using the following formula: Cell viability (%)=Atreated/Acontrol×100. Data were obtained from three independent experiments. Cells include HeLa cells (cervical cancer), MCF-7 (breast cancer), H1299, H1975, A549 and LLC-1 (lung cancer), HepG2 and Hep3B (liver cancer) and LO2 (normal human hepatocytes).
# Atg7 deficient MEFs = test: Cytotoxic effect in Atg7 deficient MEFs; assay type: cell-based, mouse
# Text: (§2) All cells were obtained from the American Type Culture Collection (Rockville, Md., USA) unless otherwise specified. Immortalized wild-type and Atg7-deficient mouse embryonic fibroblasts (MEFs) were provided by Professor Masaaki Komatsu (Juntendo University, School of Medicine, Japan). Taxol-resistant types of A549, MCF-7, HCT-8 cancer cells, cisplatin-resistant SGC7901 cancer cells were purchased from KeyGEN BioTECH, China.
# (§3) In addition, the protein conversion from LC3-I to LC3-II is the marker for autophagy induction. […] In order to further confirm that the cobalt complex-induced autophagy leads to its anti-cancer effect, the cytotoxic effect of the cobalt-polypyridyl complex of Formula (IV) has been examined in both autophagy-wild type and -deficient cells respectively. Therefore, both autophagy related gene (Atg) 7 wild-type and deficient mouse embryonic fibroblasts (MEFs) (Wong, V. K. et al., Cell Death Dis, 2013, 4, e720) were used in this study. […] In view of the fact that the cobalt-polypyridyl complex of Formula (IV)-mediated cytotoxicity was markedly abrogated from the failure of autophagy induction in Atg7−/− deficient cells, these findings implicated that the cobalt-polypyridyl complex of Formula (IV)-induced autophagy would ultimately led to autophagic cell death.
# H1975 (lung cancer) = test: MTT cytotoxicity assay, H1975; assay type: cell-based; conditions: 72 h
# Procedure: as §1
# [1] = tested on: OV2008 cervical cancer cells; test: MTT cytotoxicity, OV2008 (cisplatin-sensitive); assay type: cell-based; conditions: 72 h
# Procedure: as §1, with “experiments.” for “experiments. Cells include HeLa cells (cervical cancer), MCF-7 (breast cancer), H1299, H1975, A549 and LLC-1 (lung cancer), HepG2 and Hep3B (liver cancer) and LO2 (normal human hepatocytes).”
# (§4) Cisplatin-sensitive or -resistant A2780, OV2008 and C13 cancer cells were provided by Prof. Benjamin Tsang (Department of Obstetrics and Gynecology and Department of Cellular and Molecular Medicine, University of Ottawa, Canada). HCT116 p53^+/+ and p53^−/− isogenic human colon cancer cells were provided by Professor Bert Vogelstein (Ludwig Center at Johns Hopkins, Howard Hughes Medical Institute, USA). All media were supplemented with 10% fetal bovine serum and the antibiotics penicillin (50 U/ml) and streptomycin (50 μg/ml; Invitrogen, Paisley, Scotland, UK). All cell cultures were incubated at 37° C. in a 5% humidified CO2 incubator.
# [2] = tested on: cisplatin-sensitive A2780 ovarian cancer cells; test: MTT cytotoxicity, cisplatin-sensitive A2780; assay type: cell-based; conditions: 72 h
# Procedure: as §1, with “experiments.” for “experiments. Cells include HeLa cells (cervical cancer), MCF-7 (breast cancer), H1299, H1975, A549 and LLC-1 (lung cancer), HepG2 and Hep3B (liver cancer) and LO2 (normal human hepatocytes).”
# as §4
# [3] = tested on: Taxol-resistant A549 cancer cells; test: MTT cytotoxicity, taxol-resistant A549; assay type: cell-based
# Procedure: as §1, with “experiments.” for “experiments. Cells include HeLa cells (cervical cancer), MCF-7 (breast cancer), H1299, H1975, A549 and LLC-1 (lung cancer), HepG2 and Hep3B (liver cancer) and LO2 (normal human hepatocytes).”
# as §2
# Hep 3B (liver cancer) = test: MTT cytotoxicity assay, Hep3B; assay type: cell-based; conditions: 72 h
# Procedure: as §1
# LLC-1 (lung cancer) = test: MTT cytotoxicity assay, LLC-1; assay type: cell-based; conditions: LLC-1, MTT, 72 h
# Procedure: as §1
# H1299 (lung cancer) = test: MTT cytotoxicity assay, H1299; assay type: cell-based, human; conditions: 72 h
# Procedure: as §1
# [4] = tested on: cisplatin-resistant SGC-7901 gastric cancer cells; test: MTT cytotoxicity, cisplatin-resistant SGC-7901; assay type: cell-based
# Procedure: as §1, with “experiments.” for “experiments. Cells include HeLa cells (cervical cancer), MCF-7 (breast cancer), H1299, H1975, A549 and LLC-1 (lung cancer), HepG2 and Hep3B (liver cancer) and LO2 (normal human hepatocytes).”
# as §2
# [5] = tested on: HeLa cells (cervical cancer); test: MTT cytotoxicity assay, HeLa; assay type: cell-based; conditions: 72 h
# Procedure: as §1
# [6] = tested on: Taxol-resistant MCF-7 cancer cells; test: MTT cytotoxicity, taxol-resistant MCF-7; assay type: cell-based
# Procedure: as §1, with “experiments.” for “experiments. Cells include HeLa cells (cervical cancer), MCF-7 (breast cancer), H1299, H1975, A549 and LLC-1 (lung cancer), HepG2 and Hep3B (liver cancer) and LO2 (normal human hepatocytes).”
# as §2
# [7] = tested on: Taxol-sensitive MCF-7 cancer cells; test: MTT cytotoxicity, taxol-sensitive MCF-7; assay type: cell-based; conditions: MCF-7, MTT, 72 h
# Procedure: as §1, with “experiments.” for “experiments. Cells include HeLa cells (cervical cancer), MCF-7 (breast cancer), H1299, H1975, A549 and LLC-1 (lung cancer), HepG2 and Hep3B (liver cancer) and LO2 (normal human hepatocytes).”
# [8] = tested on: cisplatin-sensitive SGC-7901 gastric cancer cells; test: MTT cytotoxicity, cisplatin-sensitive SGC-7901; assay type: cell-based; conditions: SGC-7901, MTT, 72 h
# Procedure: as §1, with “experiments.” for “experiments. Cells include HeLa cells (cervical cancer), MCF-7 (breast cancer), H1299, H1975, A549 and LLC-1 (lung cancer), HepG2 and Hep3B (liver cancer) and LO2 (normal human hepatocytes).”
# [9] = tested on: Taxol-resistant HCT8 cancer cells; test: MTT cytotoxicity, taxol-resistant HCT8; assay type: cell-based
# Procedure: as §1, with “experiments.” for “experiments. Cells include HeLa cells (cervical cancer), MCF-7 (breast cancer), H1299, H1975, A549 and LLC-1 (lung cancer), HepG2 and Hep3B (liver cancer) and LO2 (normal human hepatocytes).”
# as §2
# HepG2 (liver cancer) = test: MTT cytotoxicity assay, HepG2; assay type: cell-based; conditions: 72 h
# Procedure: as §1
# [10] = tested on: HCT116 p53^−/− colon cancer cells; test: MTT cytotoxicity, HCT116 p53-/-; assay type: cell-based, human
# Procedure: as §1, with “experiments.” for “experiments. Cells include HeLa cells (cervical cancer), MCF-7 (breast cancer), H1299, H1975, A549 and LLC-1 (lung cancer), HepG2 and Hep3B (liver cancer) and LO2 (normal human hepatocytes).”
# as §4
# [11] = tested on: Taxol-sensitive HCT8 cancer cells; test: MTT cytotoxicity, taxol-sensitive HCT8; assay type: cell-based; conditions: 72 h
# Procedure: as §1, with “experiments.” for “experiments. Cells include HeLa cells (cervical cancer), MCF-7 (breast cancer), H1299, H1975, A549 and LLC-1 (lung cancer), HepG2 and Hep3B (liver cancer) and LO2 (normal human hepatocytes).”
# [12] = tested on: LO2 (normal human hepatocytes); test: MTT cytotoxicity assay, LO2; assay type: cell-based; conditions: 72 h
# Procedure: as §1
# A549 (lung cancer) = test: MTT cytotoxicity assay, A549; assay type: cell-based; conditions: 72 h
# Procedure: as §1
# Atg7 wild-type MEFs = test: Cytotoxic effect in Atg7 wild-type MEFs; assay type: cell-based, mouse
# Text: as §2, §3
# [13] = tested on: Taxol-sensitive A549 cancer cells; test: MTT cytotoxicity, taxol-sensitive A549; assay type: cell-based; conditions: 72 h
# Procedure: as §1, with “experiments.” for “experiments. Cells include HeLa cells (cervical cancer), MCF-7 (breast cancer), H1299, H1975, A549 and LLC-1 (lung cancer), HepG2 and Hep3B (liver cancer) and LO2 (normal human hepatocytes).”
# [14] = tested on: HCT116 p53^+/+ colon cancer cells; test: MTT cytotoxicity, HCT116 p53+/+; assay type: cell-based, human; conditions: 72 h
# Procedure: as §1, with “experiments.” for “experiments. Cells include HeLa cells (cervical cancer), MCF-7 (breast cancer), H1299, H1975, A549 and LLC-1 (lung cancer), HepG2 and Hep3B (liver cancer) and LO2 (normal human hepatocytes).”
# as §4
# [15] = tested on: OV2008/C13 cervical cancer cells; test: MTT cytotoxicity, OV2008/C13 (cisplatin-resistant); assay type: cell-based
# Procedure: as §1, with “experiments.” for “experiments. Cells include HeLa cells (cervical cancer), MCF-7 (breast cancer), H1299, H1975, A549 and LLC-1 (lung cancer), HepG2 and Hep3B (liver cancer) and LO2 (normal human hepatocytes).”
# as §4
# [16] = tested on: cisplatin-resistant A2780 ovarian cancer cells; test: MTT cytotoxicity, cisplatin-resistant A2780; assay type: cell-based
# Procedure: as §1, with “experiments.” for “experiments. Cells include HeLa cells (cervical cancer), MCF-7 (breast cancer), H1299, H1975, A549 and LLC-1 (lung cancer), HepG2 and Hep3B (liver cancer) and LO2 (normal human hepatocytes).”
# as §4
substance,measurement,setting,value
"[Co^II(4,4′-Me2-Bpy)3](PF6)2 [complex (III)]",IC50,MCF-7 (breast cancer),15.4 µM
same,IC50,Atg7 deficient MEFs,14 µM
same,IC50,H1975 (lung cancer),15.4 µM
same,IC50,[1],7.06 µM
same,IC50,[2],11.9 µM
same,IC50,"[3]; A549, MTT, 72 h",2370 nM
same,Resistant Factor,"[3]; A549, IC50 taxol-resistant over IC50 taxol-sensitive",0.25
same,IC50,Hep 3B (liver cancer),4.06 µM
same,IC50,LLC-1 (lung cancer),2790 nM
same,IC50,H1299 (lung cancer),3.43 µM
same,IC50,"[4]; SGC-7901, MTT, 72 h",17.6 µM
same,Resistant Factor,"[4]; SGC-7901, cisplatin-resistant over cisplatin-sensitive",1.50
same,IC50,[5],10.1 µM
same,IC50,"[6]; MCF-7, MTT, 72 h",2510 nM
same,Resistant Factor,"[6]; MCF-7, IC50 taxol-resistant over IC50 taxol-sensitive",0.54
same,IC50,[7],4.62 µM
same,IC50,[8],11.7 µM
same,IC50,"[9]; HCT8, MTT, 72 h",1160 nM
same,Resistant Factor,"[9]; HCT8, IC50 taxol-resistant over IC50 taxol-sensitive",0.37
same,IC50,HepG2 (liver cancer),7.39 µM
same,Resistant Factor,[10]; HCT116 p53^−/− over HCT116 p53^+/+,0.52
same,IC50,"[10]; MTT, 72 h",8.89 µM
same,IC50,[11],3.13 µM
same,IC50,[12],13.5 µM
same,IC50,A549 (lung cancer),9.45 µM
same,IC50,Atg7 wild-type MEFs,4.84 µM
same,IC50,[13],9.59 µM
same,IC50,[14],17.1 µM
same,IC50,"[15]; OV2008/C13, MTT, 72 h",15.6 µM
same,Resistant Factor,[15]; OV2008/C13 over OV2008,2.21
same,IC50,"[16]; A2780, MTT, 72 h",11.2 µM
same,Resistant Factor,"[16]; A2780, cisplatin-resistant over cisplatin-sensitive",0.94
